Assay results from ChEMBL document CHEMBL1139186, “Design and evaluation of 'Linkerless' hydroxamic acids as selective HDAC8 inhibitors” (Bioorg Med Chem Lett, 2007).
Active and inactive are the calls of the source. The calls are words filed in the database; no cut-off is given here.

What was measured:
[1] = biological target: T1, Histone deacetylase 8 (Homo sapiens, UniProt Q9BY41)
T1 sequence (Q9BY41 whole entry): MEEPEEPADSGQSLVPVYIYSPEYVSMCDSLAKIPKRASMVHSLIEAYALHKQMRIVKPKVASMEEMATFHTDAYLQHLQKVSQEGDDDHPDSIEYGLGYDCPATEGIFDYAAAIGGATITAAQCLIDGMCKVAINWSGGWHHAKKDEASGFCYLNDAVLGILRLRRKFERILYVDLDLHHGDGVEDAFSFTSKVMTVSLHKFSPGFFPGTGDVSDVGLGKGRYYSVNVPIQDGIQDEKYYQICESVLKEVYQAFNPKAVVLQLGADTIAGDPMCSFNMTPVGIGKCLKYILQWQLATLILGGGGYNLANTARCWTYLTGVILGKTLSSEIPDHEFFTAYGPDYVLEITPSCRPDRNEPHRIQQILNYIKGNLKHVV
Description: Inhibition of human HDAC8 by [3H]acetyl histone peptide assay

[2] = biological target: Histone deacetylase 1 (Homo sapiens, UniProt Q13547); assay: Inhibition of human HDAC1 by [3H]acetyl histone peptide assay
Histone deacetylase 1, sequence (Q13547 whole entry): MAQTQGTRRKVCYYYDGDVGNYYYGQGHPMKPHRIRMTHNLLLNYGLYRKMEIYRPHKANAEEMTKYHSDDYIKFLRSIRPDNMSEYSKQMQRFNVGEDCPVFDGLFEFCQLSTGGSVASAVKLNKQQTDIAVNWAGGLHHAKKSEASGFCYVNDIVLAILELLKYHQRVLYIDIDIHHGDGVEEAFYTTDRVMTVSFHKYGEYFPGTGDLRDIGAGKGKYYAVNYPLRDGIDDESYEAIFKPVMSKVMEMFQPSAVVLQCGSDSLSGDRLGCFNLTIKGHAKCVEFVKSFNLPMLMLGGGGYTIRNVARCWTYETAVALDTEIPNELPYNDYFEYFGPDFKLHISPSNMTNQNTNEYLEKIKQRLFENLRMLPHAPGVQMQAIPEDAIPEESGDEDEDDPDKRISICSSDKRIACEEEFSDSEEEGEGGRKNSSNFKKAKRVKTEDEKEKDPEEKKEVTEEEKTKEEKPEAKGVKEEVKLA

[3] = biological target: T2, Protein deacetylase HDAC6 (Homo sapiens, UniProt Q9UBN7); assay: Inhibition of human HDAC6 by [3H]acetyl histone peptide assay
T2 sequence (Q9UBN7 whole entry): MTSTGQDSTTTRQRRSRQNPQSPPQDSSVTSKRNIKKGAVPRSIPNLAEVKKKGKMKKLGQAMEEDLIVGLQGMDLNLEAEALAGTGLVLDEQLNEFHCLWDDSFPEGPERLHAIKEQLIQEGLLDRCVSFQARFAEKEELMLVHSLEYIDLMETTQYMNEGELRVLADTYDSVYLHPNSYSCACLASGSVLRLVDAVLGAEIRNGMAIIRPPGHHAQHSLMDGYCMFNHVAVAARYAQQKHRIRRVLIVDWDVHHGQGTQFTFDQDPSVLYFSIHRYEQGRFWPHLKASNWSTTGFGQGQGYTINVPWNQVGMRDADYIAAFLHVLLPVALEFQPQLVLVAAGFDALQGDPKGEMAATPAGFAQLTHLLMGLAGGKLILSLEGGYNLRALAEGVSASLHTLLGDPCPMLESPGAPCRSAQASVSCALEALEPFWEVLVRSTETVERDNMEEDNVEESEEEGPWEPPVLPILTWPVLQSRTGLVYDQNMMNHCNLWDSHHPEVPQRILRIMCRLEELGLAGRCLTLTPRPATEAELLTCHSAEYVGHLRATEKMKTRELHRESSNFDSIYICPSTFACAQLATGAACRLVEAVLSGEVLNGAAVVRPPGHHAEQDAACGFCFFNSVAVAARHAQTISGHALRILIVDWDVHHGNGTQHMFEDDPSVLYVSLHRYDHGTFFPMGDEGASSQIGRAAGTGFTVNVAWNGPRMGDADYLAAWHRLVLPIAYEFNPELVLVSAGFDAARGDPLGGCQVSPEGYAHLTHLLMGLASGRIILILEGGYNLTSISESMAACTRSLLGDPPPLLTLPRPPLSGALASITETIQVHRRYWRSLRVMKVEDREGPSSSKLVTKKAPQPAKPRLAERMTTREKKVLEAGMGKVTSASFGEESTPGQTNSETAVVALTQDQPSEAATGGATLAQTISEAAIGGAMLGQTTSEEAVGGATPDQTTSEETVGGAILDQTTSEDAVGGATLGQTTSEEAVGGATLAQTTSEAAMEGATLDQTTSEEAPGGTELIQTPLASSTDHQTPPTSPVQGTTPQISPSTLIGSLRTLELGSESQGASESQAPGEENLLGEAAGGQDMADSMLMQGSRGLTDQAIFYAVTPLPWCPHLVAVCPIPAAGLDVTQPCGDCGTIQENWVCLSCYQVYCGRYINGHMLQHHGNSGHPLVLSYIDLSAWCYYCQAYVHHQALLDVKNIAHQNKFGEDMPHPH

[4] = tested on: HeLa; assay: Increase in lysine-acetylated tubulin levels in HeLa cells by Western blot; type: functional, cell-based; conditions: Homo sapiens
[5] = tested on: HeLa; assay: Increase in lysine-acetylated histone H4 levels in HeLa cells by Western blot; type: functional, cell-based; conditions: Homo sapiens
[6] = tested on: HEK293; assay: Increase in lysine-acetylated tubulin levels in HEK293 cells by Western blot; type: functional, cell-based; conditions: Homo sapiens
[7] = tested on: HEK293; assay: Increase in lysine-acetylated histone H4 levels in HEK293 cells by Western blot; type: functional, cell-based; conditions: Homo sapiens

Row | SMILES | IC50 [1] [µM] | IC50 [2] [µM] | IC50 [3] [µM] | Activity [4] | Activity [5] | Activity [6] | Activity [7]
1 | O=C(NO)c1cccc(Oc2ccccc2)c1 | 6.6 | – | – | – | – | – | –
2 | O=C(NO)c1cccc(-c2ccccc2)c1 | 20 | > 100 | > 100 | – | – | – | –
3 | O=C(NO)c1cccc2ccccc12 | 14 | > 100 | > 100 | – | – | – | –
4 | O=C(/C=C/c1cccc2ccccc12)NO | 0.7 | > 100 | 82 | Active | Active | Active | Active
5 | O=C(NO)c1ccc(-c2cccc3ccccc23)cc1 | 0.3 | > 100 | 55 | – | – | – | –
